Among the data in patent publication US20070249670A1, “Glycogen Phosphorylase Inhibitor Compounds and Pharmaceutical Compositions Thereof” (SMITHKLINE BEECHAM CORPORATION, priority 2004, published 2007) are IC50 values, retold here.

Structures can show the parent of a compound that is named as a salt.

In the assay the target is T1, human liver glycogen phosphorylase a (HLGPa) (Homo sapiens, UniProt P06737).
T1 construct: creating a full-length cDNA fused at the 5′ end to codons for methionine-glycine-alanine-histidine; 6xHis tag (leader Met-Gly-Ala-His6-Gly-Gly) (N); made in house; host or cells: E. coli (bacterial expression plasmid pTXK1007LTev)
T1 sequence (P06737 2-847 limits assumed): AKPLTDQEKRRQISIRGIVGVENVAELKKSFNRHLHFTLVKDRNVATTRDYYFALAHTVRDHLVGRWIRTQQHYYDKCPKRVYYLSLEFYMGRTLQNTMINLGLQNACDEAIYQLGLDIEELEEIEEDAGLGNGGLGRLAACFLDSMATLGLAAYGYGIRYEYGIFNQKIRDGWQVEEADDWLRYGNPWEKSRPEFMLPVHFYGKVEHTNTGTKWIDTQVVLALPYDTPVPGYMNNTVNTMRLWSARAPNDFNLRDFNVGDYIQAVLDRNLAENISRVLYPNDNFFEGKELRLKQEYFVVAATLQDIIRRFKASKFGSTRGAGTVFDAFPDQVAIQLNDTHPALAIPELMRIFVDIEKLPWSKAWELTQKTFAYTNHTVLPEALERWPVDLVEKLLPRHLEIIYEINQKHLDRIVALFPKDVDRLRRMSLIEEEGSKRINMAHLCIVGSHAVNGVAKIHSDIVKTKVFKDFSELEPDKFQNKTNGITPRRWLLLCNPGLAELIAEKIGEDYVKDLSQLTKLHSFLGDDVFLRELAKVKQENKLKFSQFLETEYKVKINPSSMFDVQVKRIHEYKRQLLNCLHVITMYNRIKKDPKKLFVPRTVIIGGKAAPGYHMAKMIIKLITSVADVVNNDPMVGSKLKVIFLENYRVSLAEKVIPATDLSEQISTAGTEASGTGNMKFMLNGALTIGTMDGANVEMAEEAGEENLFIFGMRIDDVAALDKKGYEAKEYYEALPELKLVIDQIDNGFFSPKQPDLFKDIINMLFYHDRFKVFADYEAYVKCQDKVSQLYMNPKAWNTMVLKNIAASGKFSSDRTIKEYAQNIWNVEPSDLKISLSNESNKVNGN
Nature of the assay: Human liver glycogen phosphorylase a enzymatic activity assay (coupled, fluorescent resorufin readout, with and without 10 mM glucose). It counts as biochemical.

The mark [1] stands for this setting: human liver glycogen phosphorylase a enzymatic activity assay.
[2] abbreviates: human liver glycogen phosphorylase a, table does not say whether with or without 10 mM glucose.

Broadly, the IC50 is the point on the concentration scale where inhibition reaches its midpoint. A higher IC50 goes with a need for much substance. `Cc1cc(C)c(NC(=O)Nc2cc3ccccc3cc2C(=O)Nc2cc(C(=O)O)cc(C(=O)O)c2)c(C)c1` [Example 498, 5-({[3-({[(2,4,6-trimethylphenyl)amino]carbonyl}amino)-2-naphthalenyl]carbonyl}amino)-1,3-benzenedicarboxylic acid] had an IC50 under setting [1] of 110 nM.
The same measure, in the same setting: the result for `O=C(Nc1cc(Cl)c(Cl)cc1C(=O)N[C@H](C(=O)O)C1CCCCC1)Nc1c(Cl)cccc1Cl` [Example 177, (2S)-Cyclohexyl({[4,5-dichloro-2-({[(2,6-dichlorophenyl)amino]-carbonyl}amino)phenyl]carbonyl}amino)ethanoic acid] reads 100 nM.
Regarding `Cc1cc(C)c(NC(=O)Nc2cc3ccccc3cc2C(=O)NCCC(=O)O)c(C)c1` [Example 494, N-{[3-({[(2,4,6-trimethylphenyl)amino]carbonyl}amino)-2-naphthalenyl]carbonyl}-beta-alanine], the IC50 under setting [1] worked out at 360 nM.
Under setting [1], `O=C(Nc1cc2ccccc2cc1C(=O)NC(C(=O)O)[C@H]1CC[C@@H](C(F)(F)F)CC1)Nc1c(Cl)cc(OC(F)(F)F)cc1Cl` (stereo partly drawn) [Example 467, {[(3-{[({2,6-dichloro-4-[(trifluoromethyl)oxy]phenyl}amino)carbonyl]amino}-2-naphthalenyl)carbonyl]amino}[cis-4-(trifluoromethyl)cyclohexyl]acetic acid] showed an IC50 of 35 nM. Compared with the last compound, the IC50 is about 10-fold lower.
In turn, `Cc1ccccc1NC(=O)Nc1cc2ccccc2cc1C(=O)N[C@H](C(=O)O)[C@@H](C)O` [Example 14, N-[3-({[(2-methylphenyl)amino]carbonyl}amino)-2-naphthoyl]-L-threonine] gave an IC50 under setting [1] of 6410 nM.
`Cc1cc(C)c(NC(=O)Nc2cc3ccccc3nc2C(=O)N[C@](C)(C(=O)O)C2CCCCC2)c(C)c1` [Example 312, 2-Cyclohexyl-N-{[3-({[(2,4,6-trimethylphenyl)amino]carbonyl}amino)-2-quinolinyl]carbonyl}-D-alanine] gave an IC50 under setting [2] of 230 nM.
With `O=C(Nc1ccccc1Cl)Nc1cc(F)c(F)cc1C(=O)N[C@@H](Cc1c[nH]c2ccccc12)C(=O)O` [Example 76, N-[2-({[(2-chlorophenyl)amino]carbonyl}amino)-4,5-difluorobenzoyl]-L-tryptophan trifluoroacetate], the IC50 under setting [1] is 3740 nM.
On the same count and under the same terms, the same measure for `Cc1cccc(C)c1NC(=O)Nc1cc(-c2cccnc2)ccc1C(=O)N[C@H](C(=O)O)C1CCCCC1` [Example 181, (2S)-Cyclohexyl({[2-({[(2,6-dimethylphenyl)amino]carbonyl}amino)-4-(3-pyridinyl)phenyl]carbonyl}amino)ethanoic acid]: 99 nM.
Take `COC(=O)C(NC(=O)c1cc2ccccc2cc1NC(=O)Nc1c(C)cc(C)cc1C)C1CCC(NC(=O)OC(C)(C)C)CC1` (mixture of isomers) [Example 349, (cis and trans)-methyl[4-({[(1,1-dimethylethyl)oxy]carbonyl}amino)cyclohexyl] ({[3-({[(2,4,6-trimethylphenyl)amino]carbonyl}amino)-2-naphthalenyl]carbonyl}amino)acetate]: the IC50 under setting [2] came to 6890 nM.
`Cc1cccc(C)c1NC(=O)Nc1cc(-c2cncnc2)ccc1C(=O)N[C@H](C(=O)O)C1CCCCC1` [Example 189, (2S)-Cyclohexyl({[2-({[(2,6-dimethylphenyl)amino]carbonyl}amino)-4-(5-pyrimidinyl)phenyl]carbonyl}amino)ethanoic acid]: the IC50 under setting [1] amounted to 330 nM.
Same read-out and setting: the same measure for `Cc1cccc(C)c1NC(=O)Nc1cc2ccccc2cc1C(=O)N[C@H](C(=O)O)C(C)C` [Example 21, N-[3-({[(2,6-dimethylphenyl)amino]carbonyl}amino)-2-naphthoyl]-L-valine]: 1960 nM.
Under setting [2], `O=C1CCC(NC(=O)c2cc3ccccc3cc2NC(=O)Nc2c(Cl)cccc2Cl)(C(=O)O)CC1` [Example 292, 1-({[3-({[(2,6-dichlorophenyl)amino]carbonyl}amino)-2-naphthalenyl]carbonyl}amino)-4-oxocyclohexanecarboxylic acid] displayed an IC50 of 6590 nM.
`Cc1cccc(Cl)c1NC(=O)Nc1cc(Cl)ccc1C(=O)N[C@H](C(=O)O)C1CCCCC1` [Example 172, (2S)-({[4-Chloro-2-({[(2-chloro-6-methylphenyl)amino]carbonyl}-amino)phenyl]carbonyl}amino)(cyclohexyl)ethanoic acid]: under setting [1], the IC50 worked out at 180 nM.
For `COc1ccc(-c2cc(NC(=O)Nc3c(C)cc(C)cc3C)c(C(=O)N[C@H](C(=O)O)[C@@H](C)OC(C)(C)C)s2)cc1` [Example 446, O-(1,1-dimethylethyl)-N-{[5-[4-(methyloxy)phenyl]-3-({[(2,4,6-trimethylphenyl)amino]carbonyl}amino)-2-thienyl]carbonyl}-L-threonine], the IC50 under setting [1] stood at 31 nM.
Still for that read-out and setting: the same measure for `Cc1cc(C)c(NC(=O)Nc2cc(-c3ccc(OC(F)(F)F)cc3)sc2C(=O)N[C@H](C(=O)O)C2CCCCC2)c(C)c1` [Example 437, (2S)-cyclohexyl({[5-{4-[(trifluoromethyl)oxy]phenyl}-3-({[(2,4,6-trimethylphenyl)amino]carbonyl}amino)-2-thienyl]carbonyl}amino)ethanoic acid]: 220 nM; for `Cc1noc(C)c1NC(=O)Nc1cc2ccccc2cc1C(=O)N[C@@H](CC(=O)O)C(=O)O` [Example 147, N-{[3-({[(3,5-dimethyl-4-isoxazolyl)amino]carbonyl}amino)-2-naphthalenyl]carbonyl}-L-aspartic acid]: 29100 nM.
On the same count and under the same terms, the result for `CCOC(=O)C[C@H](NC(=O)c1ccc(-c2cccc(F)c2)cc1NC(=O)Nc1c(C)cc(C)cc1C)C(=O)O` [Example 506, (2S)-4-(ethyloxy)-2-({[3′-fluoro-3-({[(2,4,6-trimethylphenyl)amino]carbonyl}amino)-4-biphenylyl]carbonyl}amino)-4-oxobutanoic acid] reads 1090 nM.
For `Cc1cccc(Cl)c1NC(=O)Nc1cc2ccccc2cc1C(=O)N1CCC[C@H]1C(=O)O` [Example 35, 1-[3-({[(2-chloro-6-methylphenyl)amino]carbonyl}amino)-2-naphthoyl]-L-proline], the IC50 under setting [1] was 580 nM.
The same measure, in the same setting: the result for `Cc1cc(C)c(NC(=O)Nc2sc(-c3ccc(OC(F)(F)F)cc3)cc2C(=O)O)c(C)c1` [Example 430, 5-{4-[(trifluoromethyl)oxy]phenyl}-2-({[(2,4,6-trimethylphenyl)amino]carbonyl}amino)-3-thiophenecarboxylic acid] reads 740 nM; that for `Cc1cccc(C)c1NC(=O)Nc1cc(C(F)(F)F)ccc1C(=O)N[C@H](C(=O)O)C1CCCCC1` [Example 178, (2S)-cyclohexyl({[2-({[(2,6-dimethylphenyl)amino]carbonyl}amino)-4-(trifluoromethyl)phenyl]carbonyl}amino)ethanoic acid], 2330 nM.
Regarding `C[C@@H](C(=O)O)N(Cc1ccccc1)C(=O)c1cc2ccccc2cc1NC(=O)Nc1c(Cl)cccc1Cl` [Example 250, N-{[3-({[(2,6-dichlorophenyl)amino]carbonyl}amino)-2-naphthalenyl]carbonyl}-N-(phenylmethyl)-L-alanine], 7770 nM corresponded to half-maximal inhibition under setting [2] (IC50).
In turn, `Cn1cc(-c2cc(C(=O)N[C@H](C(=O)O)C3CCCCC3)c(NC(=O)Nc3c(Cl)cccc3Cl)s2)cn1` [Example 423, (2S)-cyclohexyl({[2-({[(2,6-dichlorophenyl)amino]carbonyl}amino)-5-(1-methyl-1H-pyrazol-4-yl)-3-thienyl]carbonyl}amino)ethanoic acid] had an IC50 under setting [1] of 260 nM. In other words, the sub-micromolar range.
`Cc1onc(-c2ccccc2)c1NC(=O)Nc1cc2ccccc2cc1C(=O)N[C@H](C(=O)O)C1CCCCC1` [Example 249, (2S)-cyclohexyl({[3-({[(5-methyl-3-phenyl-4-isoxazolyl)amino]carbonyl}amino)-2-naphthalenyl]carbonyl}amino)ethanoic acid] returned an IC50 under setting [2] of 17400 nM.
With `Cc1cccc(C)c1NC(=O)Nc1cc(-c2ccccc2)ccc1C(=O)N[C@H](C(=O)O)C1CCCCC1` [Example 175, (2S)-Cyclohexyl({[3-({[(2,6-dimethylphenyl)amino]carbonyl}amino)-4-biphenylyl]carbonyl}amino)ethanoic acid], 163 nM corresponded to half-maximal inhibition under setting [1] (IC50).
As to `CCCc1cc(C)c(NC(=O)Nc2cc3ccccc3cc2C(=O)NC2(C(=O)O)CCCCCC2)c(C)c1` [Example 309, 1-({[3-({[(2,6-dimethyl-4-propylphenyl)amino]carbonyl}amino)-2-naphthalenyl]carbonyl}amino)cycloheptanecarboxylic acid], it took 11 nM to reach half-maximal inhibition under setting [2] (IC50).
The compound `CCCC[C@H](NC(=O)c1nc2ccccc2cc1NC(=O)Nc1c(C)cc(C)cc1C)C(=O)O` [Example 313, N-{[3-({[(2,4,6-trimethylphenyl)amino]carbonyl}amino)-2-quinolinyl]carbonyl}-L-norleucine] displayed an IC50 under setting [2] of 160 nM.
